Source: US20140107109A1, “AMINO-DIHYDROTHIAZINE AND AMINO-DIOXIDO DIHYDROTHIAZINE COMPOUNDS AS BETA-SECRETASE ANTAGONISTS AND METHODS OF USE” (Amgen Inc., priority 2012, published 2014)
Where two headings read alike, the source gives them in different places.

Key:
[1] = biological target: Beta Secretase enzyme (BACE1) (Homo sapiens, UniProt P56817); assay: In vitro enzymatic BACE FRET assay; assay type: biochemical; details: read-out: BACE1 FRET assay IC50
Outline: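 BACE1 cleavage of a 50 nM fluorophore/quencher peptide FRET substrate ran for one hour in 0.05 M acetate pH 4.2, 10% DMSO, 100 uM genapol. Tris buffer raised pH to neutrality to stop the reaction before fluorescence was read (excitation 488 nm, […]).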

[2] = test system: Aβ40 in conditioned medium of cells stably expressing Amyloid Precursor Protein (APP); assay: In vitro BACE cell-based assay (HEK cell assay), Aβ40 sandwich ELISA; details: Homo sapiens, HEK293
Outline: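 APP-stably expressing cells (40K/well, grown 24 h in DMEM/10% FBS) were treated 24 h with compounds in 10-point dose response starting at 100 μM or 10 μM, 0.1% DMSO final. Secreted Aβ40 was measured by sandwich ELISA (pAb40 capture, biotinylated 6E10 detection, europium time-resolved fluorescence); IC50 from percent inhibition.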

Cathepsin D (Cat D) = biological target: T1, Cathepsin D (Cat D) (Homo sapiens, UniProt P07339); assay: In vitro enzymatic Cathepsin D (Cat D) FRET assay; assay type: biochemical; details: read-out: CatD IC50
T1 construct: Recombinant Cat D was expressed in CHO cells; made in house; host or cells: CHO cells
Outline: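 Recombinant Cat D expressed in CHO cells, used at 9 nM and pre-incubated one hour with serially diluted inhibitor in DMSO. Peptide substrate carries a fluorophore and quencher flanking the cleavage site; reaction stopped with Tris buffer raising pH to neutrality, then fluorescence read.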

T1 sequence (P07339 65-412, species assumed): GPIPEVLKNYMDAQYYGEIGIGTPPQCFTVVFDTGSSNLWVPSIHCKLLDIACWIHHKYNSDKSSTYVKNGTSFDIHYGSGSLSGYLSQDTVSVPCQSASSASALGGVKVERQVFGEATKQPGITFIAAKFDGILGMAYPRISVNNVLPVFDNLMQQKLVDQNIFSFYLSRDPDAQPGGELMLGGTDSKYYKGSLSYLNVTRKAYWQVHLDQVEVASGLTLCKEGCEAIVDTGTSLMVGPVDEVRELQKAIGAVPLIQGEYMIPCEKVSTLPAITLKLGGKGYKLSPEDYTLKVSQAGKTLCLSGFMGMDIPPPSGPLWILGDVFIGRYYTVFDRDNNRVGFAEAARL
Chain of Beta Secretase enzyme (BACE1) (P56817 46-501): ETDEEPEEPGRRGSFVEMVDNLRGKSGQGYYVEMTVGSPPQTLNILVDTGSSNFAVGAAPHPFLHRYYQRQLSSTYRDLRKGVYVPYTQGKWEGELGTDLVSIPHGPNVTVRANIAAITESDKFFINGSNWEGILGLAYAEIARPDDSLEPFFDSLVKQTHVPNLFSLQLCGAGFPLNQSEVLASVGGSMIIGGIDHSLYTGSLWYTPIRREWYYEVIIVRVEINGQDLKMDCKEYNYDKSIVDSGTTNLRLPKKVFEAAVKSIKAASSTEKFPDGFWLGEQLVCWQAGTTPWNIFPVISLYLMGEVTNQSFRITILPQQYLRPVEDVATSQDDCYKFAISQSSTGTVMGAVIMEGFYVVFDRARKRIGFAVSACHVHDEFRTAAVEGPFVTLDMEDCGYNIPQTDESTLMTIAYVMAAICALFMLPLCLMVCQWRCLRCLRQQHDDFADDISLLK

| SMILES | IC50 [1] | IC50 ([2]; Aβ40, 24 h incubation) | IC50 (Cathepsin D (Cat D)) | IC50 ([1]; average IC50, enzyme assay) | IC50 ([2]; average IC50, cell assay) | IC50 [2] |
| --- | --- | --- | --- | --- | --- | --- |
| COc1cnc2c(Nc3ccc(F)c([C@]4(C)CS(=O)(=O)C5(CC5)C(N)=N4)c3)nccc2c1 [Example 86, (R)-8-Amino-6-(2-fluoro-5-((3-methoxy-1,7-naphthyridin-8-yl)amino)phenyl)-6-methyl-4-thia-7-azaspiro[2.5]oct-7-ene 4,4-dioxide] | 0.0136 µM | 0.0082 µM | 160 µM | – | – | – |
| CC1(C)C(N)=N[C@](C)(c2cc(Oc3ccc(C#N)cc3)ccc2F)CS1(=O)=O [Example 96, (R)-4-(3-(5-amino-3,6,6-trimethyl-1,1-dioxido-3,6-dihydro-2H-1,4-thiazin-3-yl)-4-fluorophenoxy)benzonitrile] | 1.8 µM | 6.02 µM | 58.7 µM | – | – | – |
| CC1(C)C(N)=N[C@](C)(c2cc(Oc3cc(F)cc(C(F)(F)F)c3)ccc2F)CS1(=O)=O [Example 98, (R)-5-amino-3-(2-fluoro-5-(3-fluoro-5-(trifluoromethyl)phenoxy)phenyl)-3,6,6-trimethyl-3,6-dihydro-2H-1,4-thiazine 1,1-dioxide] | 0.135 µM | 5.04 µM | 56.3 µM | – | – | – |
| CCc1cccc(Oc2ccc(F)c([C@]3(C)CS(=O)(=O)C(C)(C)C(N)=N3)c2)c1 [Example 99, (R)-5-amino-3-(5-(3-ethylphenoxy)-2-fluorophenyl)-3,6,6-trimethyl-3,6-dihydro-2H-1,4-thiazine 1,1-dioxide] | 1.43 µM | 6.68 µM | 86.8 µM | – | – | – |
| CCc1cc(Oc2ccc(F)c([C@]3(C)CS(=O)(=O)C(C)(C)C(N)=N3)c2)ccc1Cl [Example 100, (R)-5-amino-3-(5-(4-chloro-3-ethylphenoxy)-2-fluorophenyl)-3,6,6-trimethyl-3,6-dihydro-2H-1,4-thiazine 1,1-dioxide] | 1.55 µM | > 10 µM | 17.7 µM | – | – | – |
| COc1ccc(C)cc1Oc1ccc(F)c([C@]2(C)CS(=O)(=O)C(C)(C)C(N)=N2)c1 [Example 101, (R)-5-amino-3-(2-fluoro-5-(2-methoxy-5-methylphenoxy)phenyl)-3,6,6-trimethyl-3,6-dihydro-2H-1,4-thiazine 1,1-dioxide] | 15.2 µM | > 10 µM | 194 µM | – | – | – |
| CC1(C)C(N)=N[C@](C)(c2cc(Oc3ccc4ccccc4c3)ccc2F)CS1(=O)=O [Example 102, (R)-5-amino-3-(2-fluoro-5-(naphthalen-2-yloxy)phenyl)-3,6,6-trimethyl-3,6-dihydro-2H-1,4-thiazine 1,1-dioxide] | 2.35 µM | 8.04 µM | 51.2 µM | – | – | – |
| CC1(C)C(N)=N[C@](C)(c2cc(Oc3ccccn3)ccc2F)CS1(=O)=O [Example 103, (R)-5-amino-3-(2-fluoro-5-(pyridin-2-yloxy)phenyl)-3,6,6-trimethyl-3,6-dihydro-2H-1,4-thiazine 1,1-dioxide] | 0.119 µM | 0.213 µM | 246 µM | – | – | – |
| CC1(C)C(N)=N[C@](C)(c2cc(Nc3ncnc4cc(OCC5CC5)cnc34)ccc2F)CS1(=O)=O [Example 104, (R)-5-amino-3-(5-((7-(cyclopropylmethoxy)pyrido[3,2-d]pyrimidin-4-yl)amino)-2-fluorophenyl)-3,6,6-trimethyl-3,6-dihydro-2H-1,4-thiazine 1,1-dioxide] | – | – | 358 µM | 0.00154 µM | 0.0052 µM | – |
| Cc1nc2c(Nc3ccc(F)c([C@]4(C)CS(=O)(=O)C(C)(C)C(N)=N4)c3)cccc2s1 [Example 105, (R)-5-amino-3-(2-fluoro-5-((2-methylbenzo[d]thiazol-4-yl)amino)phenyl)-3,6,6-trimethyl-3,6-dihydro-2H-1,4-thiazine 1,1-dioxide] | – | – | 145 µM | 0.184 µM | 0.742 µM | – |
| CC1(C)C(N)=N[C@](C)(c2cc(NCc3nn(CC(F)(F)F)cc3Cl)ccc2F)CS1(=O)=O [Example 108, (R)-5-amino-3-(5-(((4-chloro-1-(2,2,2-trifluoroethyl)-1H-pyrazol-3-yl)methyl)amino)-2-fluorophenyl)-3,6,6-trimethyl-3,6-dihydro-2H-1,4-thiazine 1,1-dioxide] | – | – | 49.8 µM | 0.0452 µM | 0.161 µM | – |
| CC1(C)C(N)=N[C@](C)(c2cc(NCc3c(Cl)cnn3CC(F)(F)F)ccc2F)CS1(=O)=O [Example 109, (R)-5-amino-3-(5-(((4-chloro-1-(2,2,2-trifluoroethyl)-1H-pyrazol-5-yl)methyl)amino)-2-fluorophenyl)-3,6,6-trimethyl-3,6-dihydro-2H-1,4-thiazine 1,1-dioxide] | – | – | 12.2 µM | 0.208 µM | 0.36 µM | – |
| Cc1cnc(C(=O)Nc2ccc(F)c([C@]3(C)CS(=O)(=O)C(C)(C)C(N)=N3)c2)cn1 [Example 110, (R)—N-(3-(5-amino-3,6,6-trimethyl-1,1-dioxido-3,6-dihydro-2H-1,4-thiazin-3-yl)-4-fluorophenyl)-5-methylpyrazine-2-carboxamide] | 0.0202 µM | – | 1840 µM | – | – | 0.0144 µM |
| Cc1cnc(C(=O)Nc2ccc(F)c([C@]3(C)CS(=O)(=O)C(C)(C)C(N)=N3)c2)c(C)n1 [Example 111, ®-N-(3-(5-amino-3,6,6-trimethyl-1,1-dioxido-3,6-dihydro-2H-1,4-thiazin-3-yl)-4-fluorophenyl)-3,5-dimethylpyrazine-2-carboxamide] | 0.0182 µM | – | > 400 µM | – | – | 0.0244 µM |
| C[C@@]1(c2cc(Nc3nccc4cc(Cl)cnc34)ccc2F)CS(=O)(=O)C2(CCC2)C(N)=N1 [Example 116, (R)-9-amino-7-(5-((3-chloro-1,7-naphthyridin-8-yl)amino)-2-fluorophenyl)-7-methyl-5-thia-8-azaspiro[3.5]non-8-ene 5,5-dioxide] | – | – | 38.8 µM | 0.00115 µM | 0.0263 µM | – |
| C[C@@]1(c2cc(Nc3nccc4cc(C#N)cnc34)ccc2F)CS(=O)(=O)C2(CCC2)C(N)=N1 [Example 117, (R)-8-((3-(9-amino-7-methyl-5,5-dioxido-5-thia-8-azaspiro[3.5]non-8-en-7-yl)-4-fluorophenyl)amino)-1,7-naphthyridine-3-carbonitrile] | – | – | 28.3 µM | 0.00189 µM | 0.0051 µM | – |
| C[C@@]1(c2cc(Br)ccc2F)CS(=O)(=O)[C@]2(C[C@@H](F)C2)C(N)=N1 [Example 118, (2S,4s,7R)-9-amino-7-(5-bromo-2-fluorophenyl)-2-fluoro-7-methyl-5-thia-8-azaspiro[3.5]non-8-ene 5,5-dioxide] | – | – | 31.1 µM | 4.09 µM | > 15.6 µM | – |
| C[C@@]1(c2cc(NC(=O)c3ccc(Cl)cn3)ccc2F)CS(=O)(=O)C2(CC(F)(F)C2)C(N)=N1 [Example 120, (R)—N-(3-(9-amino-2,2-difluoro-7-methyl-5,5-dioxido-5-thia-8-azaspiro[3.5]non-8-en-7-yl)-4-fluorophenyl)-5-chloropicolinamide] | 0.0013 µM | – | 148 µM | – | – | 0.0272 µM |
| Cc1cc(OC(F)F)cnc1C(=O)Nc1ccc(F)c([C@]2(C)CS(=O)(=O)C3(CCC3)C(N)=N2)c1 [Example 121, (R)—N-(3-(9-amino-7-methyl-5,5-dioxido-5-thia-8-azaspiro[3.5]non-8-en-7-yl)-4-fluorophenyl)-5-(difluoromethoxy)-3-methylpicolinamide] | 0.00311 µM | – | 67.5 µM | – | – | 0.0074 µM |
| Cc1cc(C(F)F)cnc1C(=O)Nc1ccc(F)c([C@]2(C)CS(=O)(=O)C3(CCC3)C(N)=N2)c1 [Example 123, (R)—N-(3-(9-amino-7-methyl-5,5-dioxido-5-thia-8-azaspiro[3.5]non-8-en-7-yl)-4-fluorophenyl)-5-(difluoromethyl)-3-methylpicolinamide] | 0.00457 µM | – | 150 µM | – | – | 0.0063 µM |
| Cc1cc(Cl)cnc1C(=O)Nc1ccc(F)c([C@]2(C)CS(=O)(=O)C3(CC(F)(F)C3)C(N)=N2)c1 [Example 124, (R)—N-(3-(9-amino-2,2-difluoro-7-methyl-5,5-dioxido-5-thia-8-azaspiro[3.5]non-8-en-7-yl)-4-fluorophenyl)-5-chloro-3-methylpicolinamide] | < 0.002 µM | – | 96.3 µM | – | – | 0.0246 µM |
| C[C@@]1(c2cc(NC(=O)c3ccc(Cl)cn3)ccc2F)CS(=O)(=O)[C@]2(C[C@@H](F)C2)C(N)=N1 [Example 125, N-(3-((2S,4s,7R)-9-amino-2-fluoro-7-methyl-5,5-dioxido-5-thia-8-azaspiro[3.5]non-8-en-7-yl)-4-fluorophenyl)-5-chloropicolinamide] | 0.001 µM | – | 42.8 µM | – | – | 0.0107 µM |
| Cc1cc(OC(F)F)cnc1C(=O)Nc1ccc(F)c([C@]2(C)CS(=O)(=O)C3(CC(F)(F)C3)C(N)=N2)c1 [Example 126, (R)—N-(3-(9-amino-2,2-difluoro-7-methyl-5,5-dioxido-5-thia-8-azaspiro[3.5]non-8-en-7-yl)-4-fluorophenyl)-5-(difluoromethoxy)-3-methylpicolinamide] | 0.00376 µM | – | 45.6 µM | – | – | 0.0177 µM |
| COc1cnc2c(Nc3ccc(F)c([C@]4(C)CS(=O)(=O)C5(CC(F)(F)C5)C(N)=N4)c3)nccc2n1 [Example 128, (R)-9-amino-2,2-difluro-7-(2-fluoro-5-((2-methoxypyrido[3,4b]pyrazin-5-yl)amino)phenyl)-7-methyl-5-thia-8-azaspiro[3.5]non-8-ene 5,5-dioxide] | – | – | 330 µM | 0.0259 µM | 0.199 µM | – |
